Data from the COVID Moonshot data (paper PMC7615835).
Where “and” joins values, the source holds several entries; their conditions need not be identical. Equal entries are not always repeated.

Assays:
[1] = target: SARS-CoV-2 Main Protease (SARS-CoV-2) (UniProt P0DTD1)
[2] = not given; remark: listed apart in the source
[3] = rat; plasma
[4] = cattle; serum
[5] = not given; remark: listed apart in the source
[6] = human; plasma
[7] = mouse; plasma
[8] = dog; liver_microsomes
[9] = rat, in vivo, iv
[10] = rat; in vivo; po; 10.0 mg/kg
[11] = human; liver_microsomes
[12] = mouse; liver_microsomes
[13] = mouse; hepatocytes
[14] = helaace2

C[C@@H]1C[C@@H](C(=O)Nc2cncc3ccccc23)c2cc(Cl)ccc2O1 (stereo in doubt)
logD: 3.4 | IC50 [1]: 0.231 µM

CS(=O)(=O)c1ccc2cncc(NC(=O)C3CCOc4cc(F)c(Cl)cc43)c2c1 (stereo not given)
CC50 ([2]; a549): > 9.99 µM | IC50 [1]: 1.89 µM and 1.27 µM

O=C(Nc1cncc2ccccc12)[C@@H]1CCNc2cc(Cl)c(Cl)cc21 (stereo in doubt)
fraction unbound [3]: 0.033 (2×) and 0.029 | recovery [3]: 98.4% | fraction unbound [4]: 0.584 | recovery [4]: 70.6% | logD [5]: 3.4 and 3.54 | fraction unbound [6]: 0.049 (2×) and 0.023 | recovery [6]: 105% | fraction unbound [7]: 0.039 | recovery [7]: 98.1% | logD: 3.8 | half-life [8]: 27.9 min | microsomal CLint [8]: 62.2 µL/min/mg | AUC(0-inf) ([9]; 0.5 mg/kg): 198 ng·h/mL and 170 ng·h/mL | C0 ([9]; 0.5 mg/kg): 559 ng/mL and 452 ng/mL | MRT inf ([9]; 0.5 mg/kg): 33.1 min and 29.5 min | MRT last ([9]; 0.5 mg/kg): 26.2 min and 27.9 min | Vd ([9]; 0.5 mg/kg): 1.46 L/kg and 1.94 L/kg | clearance ([9]; 0.5 mg/kg): 49.6 mL/min/kg and 60.7 mL/min/kg | AUC(0-inf) ([9]; 1.0 mg/kg): 220 ng·h/mL and 249 ng·h/mL | C0 ([9]; 1.0 mg/kg): 324 ng/mL and 410 ng/mL | MRT inf ([9]; 1.0 mg/kg): 44.1 min and 46 min | MRT last ([9]; 1.0 mg/kg): 44.8 min and 42.7 min | Vd ([9]; 1.0 mg/kg): 3.49 L/kg and 2.99 L/kg | clearance ([9]; 1.0 mg/kg): 75.9 mL/min/kg and 68 mL/min/kg | half-life ([9]; 1.0 mg/kg): 38.2 min and 32.5 min | AUC(0-inf) [10]: 257 ng·h/mL | AUC(0-t) [10]: 247 ng·h/mL | CL/F [10]: 653 mL/min/kg | Cmax [10]: 40.4 ng/mL | MRT last [10]: 397 min | Tmax [10]: 120 min | bioavailability [10]: 10.2% (2×) and 11.9% | half-life [10]: 255 min | microsomal CLint [11]: 40 µL/min/mg | half-life [12]: 9.3 min | microsomal CLint [12]: 290 µL/min/mg and 186 µL/min/mg | half-life [13]: 83 min | IC50 [1]: < 0.05 µM and 0.0474 µM

COc1ccc(C[C@H](N)C(=O)N[C@H]2[C@@H](O)[C@H](n3cnc4c(N(C)C)ncnc43)O[C@@H]2CO)cc1 (stereo in doubt)
CC50 [14]: 0.325 µM and 0.831 µM and 0.504 µM

CN(C)C(=O)CC1(C(=O)Nc2cncc3ccccc23)CCOc2ccc(Cl)cc21 (stereo not given)
CC50 ([2]; a549): > 9.99 µM | IC50 [1]: 2.92 µM

Cc1nc2n(n1)CC(C(=O)NC(C)(C(=O)Nc1cncc3ccccc13)c1ccc(Cl)c(Cl)c1)CC2 (stereo not given)
CC50 ([2]; a549): > 9.99 µM | IC50 [1]: 3.44 µM and 6.76 µM

O=C(Cc1cccc(Cl)c1)Nc1cncc2cccc(F)c12
logD: 3.1 | IC50 [1]: 1.31 µM

COCCN1CCC(C(=O)Nc2cncc3ccccc23)c2cc(Cl)ccc21 (stereo not given)
CC50 ([2]; a549): > 9.99 µM | IC50 [1]: 0.564 µM

N#Cc1cc(Cl)cc2c1NCCC2C(=O)Nc1cncc2ccccc12 (stereo not given)
CC50 ([2]; a549): > 9.99 µM | IC50 [1]: 0.242 µM

COC(=O)C1(NC(=O)C(c2cccnc2)N(C(=O)c2cocn2)c2ccc(C(C)(C)C)cc2)CCCC1 (stereo not given)
CC50 ([2]; vero): > 10 µM | IC50 [1]: 5.26 µM
